Laboratory results as given in the supplement of paper PMC10307832.

Experiments:
Assay in all cases: relative viability (nuclei count vs DMSO), 5 days (fraction); higher = more cells survive
RAF265 + Olaparib = compound: Cn1c(Nc2ccc(C(F)(F)F)cc2)nc2cc(Oc3ccnc(-c4ncc(C(F)(F)F)[nH]4)c3)ccc21 [RAF265] + O=C(c1cc(Cc2n[nH]c(=O)c3ccccc23)ccc1F)N1CCN(C(=O)C2CC2)CC1 [Olaparib] (partner 8 µM)
Method in brief: (§1)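 Values are medians from duplicate plates. Each reflects relative viability, defined as the nuclei count of treated wells over that of vehicle wells. Lung cancer cell lines in 1536-well plates were pin-tool dosed one day after seeding with one drug alone or with a fixed anchor-drug dose plus five library-drug doses (not always all listed) in √10 steps, then fixed, stained and imaged at 4× after 5 days.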

IPA-3 + AZD7762 = compound: C1=CC=C2C(=C1)C=CC(=C2SSC3=C(C=CC4=CC=CC=C43)O)O [IPA-3] + NC(=O)Nc1cc(-c2cccc(F)c2)sc1C(=O)N[C@H]1CCCNC1 [AZD7762] (partner 0.2 µM)
Method in brief: as §1

IPA-3 + Lapatinib = compound: C1=CC=C2C(=C1)C=CC(=C2SSC3=C(C=CC4=CC=CC=C43)O)O [IPA-3] + CS(=O)(=O)CCNCc1ccc(-c2ccc3ncnc(Nc4ccc(OCc5cccc(F)c5)c(Cl)c4)c3c2)o1 [Lapatinib] (partner 2 µM)
Method in brief: as §1

RAF265 + Trametinib = compound: Cn1c(Nc2ccc(C(F)(F)F)cc2)nc2cc(Oc3ccnc(-c4ncc(C(F)(F)F)[nH]4)c3)ccc21 [RAF265] + CC(=O)Nc1cccc(-n2c(=O)n(C3CC3)c(=O)c3c(Nc4ccc(I)cc4F)n(C)c(=O)c(C)c32)c1 [Trametinib] (partner 0.02 µM)
Method in brief: as §1

Cell Line	relative viability (RAF265 + Olaparib; first compound 0.01 µM)	relative viability (RAF265 + Olaparib; first compound 0.03162 µM)	relative viability (RAF265 + Olaparib; first compound 0.1 µM)	relative viability (RAF265 + Olaparib; first compound 0.3162 µM)	relative viability (RAF265 + Olaparib; first compound 1 µM)	relative viability (IPA-3 + AZD7762; first compound 0.2 µM)	relative viability (IPA-3 + AZD7762; first compound 0.6325 µM)	relative viability (IPA-3 + AZD7762; first compound 2 µM)	relative viability (IPA-3 + AZD7762; first compound 6.325 µM)	relative viability (IPA-3 + AZD7762; first compound 20 µM)	relative viability (IPA-3 + Lapatinib; first compound 0.2 µM)	relative viability (IPA-3 + Lapatinib; first compound 0.6325 µM)	relative viability (IPA-3 + Lapatinib; first compound 2 µM)	relative viability (IPA-3 + Lapatinib; first compound 6.325 µM)	relative viability (IPA-3 + Lapatinib; first compound 20 µM)	relative viability (RAF265 + Trametinib; first compound 0.01 µM)	relative viability (RAF265 + Trametinib; first compound 0.03162 µM)	relative viability (RAF265 + Trametinib; first compound 0.1 µM)	relative viability (RAF265 + Trametinib; first compound 0.3162 µM)	relative viability (RAF265 + Trametinib; first compound 1 µM)
HCC-78	1	0.876	1.06	0.864	0.724	0.712	0.625	0.671	0.697	0.904	1.01	0.7	0.924	0.763	1.02	0.79	0.913	0.728	0.705	0.537
HCC-366	0.388	0.38	0.452	0.397	0.239	0.443	0.337	0.334	0.432	0.316	1.08	1.05	1.09	1.09	1.18	0.414	0.302	0.264	0.251	0.165
HCC-827	0.727	0.7	0.794		0.512	0.256	0.281	0.253	0.355	0.286	0.216	0.191	0.161	0.165	0.189	0.592	0.483	0.544		0.362
IA-LM	0.745	0.81	0.832	0.681	0.61						1.07	0.8	0.755	0.578	0.725					
LCLC-103H	0.759	0.717	0.75	0.595	0.444	0.862	0.814	0.744	0.788	0.872						0.679	0.689	0.609	0.638	0.465
NCI-H441	0.555	0.512	0.539	0.445	0.394	1.32	0.972	1.33	1.21	1.22						0.598	0.504	0.461	0.436	0.457
NCI-H520	0.366	0.316	0.322	0.301	0.255						1.04	0.894	0.697	0.95	0.729	0.684	0.65	0.508	0.519	0.338
NCI-H522	0.791	0.695	0.737	0.728	0.57	0.974	0.809	0.759	1.02	0.91						0.743	0.77	0.613	0.679	0.657
NCI-H661	0.775	0.667	0.724	0.605	0.464						0.445	0.472	0.584	0.447	0.537	0.596	0.484	0.371	0.332	0.339
NCI-H1299	0.984	0.906	0.949	0.625	0.664						0.966	0.936	0.944	0.894	0.91					
NCI-H1563											0.968	0.657	0.871	1.01	0.907					
NCI-H1648	1.43	0.891	0.537	0.78	0.279	0.673	0.863	0.751	0.621	0.825						0.534	0.455	0.535	0.387	0.29
NCI-H1650	0.9	0.797	0.824	0.837	0.826						0.925	0.176	0.802	0.893	0.774	0.786	0.708	0.568	0.419	0.43
NCI-H1703	0.358	0.416	0.342	0.33	0.273	0.119	0.121	0.126	0.145	0.133	1.17	1.05	0.861	0.961	1.35					
NCI-H2009	0.785	0.594	0.603	0.671	0.579						1.2	0.899	0.832	0.853	0.577	0.29	0.303	0.189	0.188	0.165
NCI-H2023	0.491	0.452	0.544	0.524	0.374						0.91	0.711	0.774	0.925	0.832	0.608	0.508	0.533	0.55	0.266
NCI-H2228	0.915	0.691	0.726	0.291	0.246						1.87	1.39	1.24	0.825	1.18	0.651	0.58	0.423	0.201	0.247
NCI-H2342	0.377	0.37	0.468	0.395	0.348	0.429	0.563	0.502	0.681	0.542						0.75	0.715	0.786	0.698	0.682
SK-LU-1	0.511	0.386	0.419	0.283	0.265						1.18	0.744	1.01	0.756	0.692	0.559	0.419	0.393	0.274	0.257
SK-MES-1	0.582	0.308	0.229	0.208	0.204						0.524	0.431	0.487	0.423	0.449	0.601	0.531	0.443	0.317	0.285
SW 900	0.89	0.725	0.79	0.716	0.27	0.823	0.64	0.631	0.605	0.786						0.83	0.994	0.836	0.679	0.52
SW 1573	0.474	0.388	0.304	0.28	0.248						1.17	1.09	1.03	1.06	1.06	0.665	0.597	0.556	0.54	0.255
